{"source": "paper PMC10021017", "about": "(Journal of the American Chemical Society, 2023)", "molecules": {"B1": {"name": "HydC subunit of the electron-bifurcating [FeFe]-hydrogenase HydABC from Thermoanaerobacter kivui (natural protein)", "chain": "MCNCCCKGSKDPRFEKVDEILSKLANERGALIAILQHVQHEFGYLPEDVIFYIASKTGIPASKIYGVATFYAQFHLKPRGKYVIRVCLGTACHVKGANKILAEFEKQLGIKAGETTSDLKFTLERVGCLGACGLAPTVMVNEKTYGKMTPEKVSEVLKEYSDVEAAASAQ"}}, "key": {"[1]": {"molecular_target": "T1, HydB (HydABCTk, electron-bifurcating [FeFe]-hydrogenase) (Thermoanaerobacter kivui, UniProt A0A097ATG4)", "T1 sequence (A0A097ATG4 1-630)": "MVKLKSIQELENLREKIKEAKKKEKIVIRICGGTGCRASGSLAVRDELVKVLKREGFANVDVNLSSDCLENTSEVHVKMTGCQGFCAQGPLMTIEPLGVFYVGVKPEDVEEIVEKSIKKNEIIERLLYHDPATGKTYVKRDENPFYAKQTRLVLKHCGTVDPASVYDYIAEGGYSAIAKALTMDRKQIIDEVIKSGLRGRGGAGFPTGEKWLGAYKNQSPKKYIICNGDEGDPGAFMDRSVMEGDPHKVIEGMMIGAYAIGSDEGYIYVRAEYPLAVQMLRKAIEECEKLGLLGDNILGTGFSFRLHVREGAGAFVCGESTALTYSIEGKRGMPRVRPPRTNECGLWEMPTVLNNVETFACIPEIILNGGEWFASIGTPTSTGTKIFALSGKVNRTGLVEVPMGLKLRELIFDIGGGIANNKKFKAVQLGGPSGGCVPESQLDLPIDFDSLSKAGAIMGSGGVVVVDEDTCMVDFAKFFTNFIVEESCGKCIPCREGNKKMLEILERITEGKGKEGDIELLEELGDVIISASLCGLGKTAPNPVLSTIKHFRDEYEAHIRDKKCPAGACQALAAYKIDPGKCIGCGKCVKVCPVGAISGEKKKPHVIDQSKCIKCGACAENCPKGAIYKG", "T1 sequence (A0A097ATG3 1-571 partner)": "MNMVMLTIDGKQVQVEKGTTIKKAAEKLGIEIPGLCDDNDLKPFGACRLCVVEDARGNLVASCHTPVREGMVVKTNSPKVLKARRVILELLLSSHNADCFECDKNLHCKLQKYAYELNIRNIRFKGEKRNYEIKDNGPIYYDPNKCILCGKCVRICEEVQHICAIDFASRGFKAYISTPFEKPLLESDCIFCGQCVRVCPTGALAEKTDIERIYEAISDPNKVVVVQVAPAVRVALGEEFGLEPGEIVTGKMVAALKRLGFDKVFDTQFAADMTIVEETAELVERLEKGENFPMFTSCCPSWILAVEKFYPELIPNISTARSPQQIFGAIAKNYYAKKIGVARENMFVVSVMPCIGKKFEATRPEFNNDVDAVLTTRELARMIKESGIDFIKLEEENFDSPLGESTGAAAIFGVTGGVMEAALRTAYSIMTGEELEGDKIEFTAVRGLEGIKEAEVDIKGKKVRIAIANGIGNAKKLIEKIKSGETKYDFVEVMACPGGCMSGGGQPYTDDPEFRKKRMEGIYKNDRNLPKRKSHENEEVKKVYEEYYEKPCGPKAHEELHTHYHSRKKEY", "T1 sequence (A0A097ATI0 1-170 partner)": "B1 chain", "experiment": "cryoEM", "format": "binding"}, "[2]": {"molecular_target": "HydABC heterotrimer (protomer) of the electron-bifurcating [FeFe]-hydrogenase from Thermoanaerobacter kivui (Thermoanaerobacter kivui)", "experiment": "cryo-EM structure"}, "HydB (ΔB2-HydABCTk)": {"molecular_target": "HydB (ΔB2-HydABCTk) (Thermoanaerobacter kivui, UniProt A0A097ATG4, C82G/C86G)"}, "[3]": {"molecular_target": "T2, HydB subunit of the electron-bifurcating [FeFe]-hydrogenase HydABC from Thermoanaerobacter kivui (Thermoanaerobacter kivui, UniProt A0A097ATG4 1-630)", "T2 sequence": "T1 sequence (A0A097ATG4 1-630)", "experiment": "cryo-EM structure"}}, "data": [{"molecule": "Cc1cc2nc3c(=O)[nH]c(=O)nc-3n(C[C@H](O)[C@H](O)[C@H](O)COP(=O)(O)O)c2cc1C", "note": "[FMN]", "values": [{"measurement": "cryoEM (reduced 3.12 A; oxidized 3.49 A, 8BEW); TLC of bound flavin", "setting": "[1]", "value": "modified Rossmann fold with four (instead of six) β-sheets that noncovalently bind the FMN cofactor in a solvent-accessible cavity"}]}, {"molecule": "HydABC heterotrimer (protomer) of the electron-bifurcating [FeFe]-hydrogenase from Thermoanaerobacter kivui (from UniProt A0A097ATG4 1-630; A0A097ATI0 1-170) (complex)", "values": [{"measurement": "stoichiometry N", "setting": "[2]", "value": 2}]}, {"molecule": "NC(=O)c1ccc[n+]([C@@H]2O[C@H](COP(=O)(O)OP(=O)(O)OC[C@H]3O[C@@H](n4cnc5c(N)ncnc54)[C@H](OP(=O)(O)O)[C@@H]3O)[C@@H](O)[C@H]2O)c1", "note": "[NADP^+]", "values": [{"measurement": "Kd", "setting": "HydB (ΔB2-HydABCTk)", "value": "65 to 71", "unit": "µM"}]}, {"molecule": "B1", "values": [{"measurement": "binding result", "setting": "[3]", "value": "binds"}]}]}
